Measurements published in US4556676A, “Antidepressant derivatives of trans-4-phenyl-1,2,3,4-tetrahydro-1-naphthalenamine” (priority 1980, dated 1985).
Structures can show the parent of a compound that is named as a salt. Where two headings read alike, the source gives them in different places.

Columns and labels:
mice = experiment: Reduction of behavioral despair in vivo (modified Porsolt mouse swim test); design: species or system Swiss-Webster CD male mice; conditions: sc, read-out: MPE50
Method: A number of Swiss-Webster CD male mice weighing 25-30 g. (Charles River Laboratories, Inc.; Wilmington, Mass.) were housed under standard laboratory conditions for at least one week prior to experimentation. […] One hour later the mice were placed individually in 1 liter beakers containing 7 cm. of 25° C. water. Beginning at 2 min. after immersion, each mouse was observed every 30 sec. for the presence of immobility, characterized as floating motionless in the water. A total of ten observations were made, each being scored as "0=animal moving, swimming, attempting to escape" or "1=animal immobile". The number of positive observations for each mouse was then totaled and a mean immobility score calculated for the group of ten.

[1] = tested on: 5-hydroxytryptophan-induced tremors; experiment: Potentiation of 5-hydroxytryptophan-induced behavioral symptoms (tremors) in vivo; design: species or system Swiss-Webster CD male mice; conditions: for ED50: Mus musculus; for ED50 (tremors): then 100 mg./kg. i.p. 5HTP one hour later, Hydrochloride
Method: The mice were rated for the presence of this symptom by a "blinded observer" at 10-20 min. after 5HTP treatment.

[2] = tested on: synaptosomal uptake of dopamine (DA); experiment: Blockade of synaptosomal uptake of dopamine (DA) in vitro, rat corpus striatum; type: biochemical, Sprague-Dawley CD male rats; conditions: rat corpus striatum synaptosomes
Method: (§1) Sprague-Dawley CD male rats weighing 180-220 g. (Charles River Laboratories, Inc.; Wilmington, Mass.) were used in this procedure. A crude synaptosomal fraction of rat corpus striatum (for 5HT and DA uptake) or hypothalmus (for NE uptake) tissue was prepared by homogenizing tissue (25 ml./g. wet) in ice-cold 0.32M sucrose containing 1 mg./ml. glucose, 0.0001M EDTA and tris(hydroxymethyl)aminomethane to pH 7.4. The homogenate was centrifuged at 1000×g for 10 min. at 0°-4° C., the pellet discarded and the supernatant centrifuged at 17,000×g for 20 min. at 0°-4° C. The resulting pellet was resuspended in the ice-cold 0.32M sucrose pH 7.4 solution at 10 ml./g. original tissue (wet) for corpus striatum and 5 ml./g. original tissue (wet) for hypothalmus. […] Duplicate 0.1 ml. aliquots of the tissue suspension were incubated for 10 min. at 37° C. with 0.02 ml. of a solution containing a known quantity of the named test compound and 1.0 ml. of the incubation buffer containing additionally 1 mg./ml. glucose and 0.0001 mM labeled monoamine (^14 C-5HT, ^14 C-DA or ^3 H-NE). After incubation, the mixtures were filtered through 0.45 micron Millipore filters and the filters washed with the incubation buffer. […] Uptake was calculated as picomoles 5HT, DA or NE per mg. protein (protein was determined by measurement with Folin phenol reagent).

[3] = tested on: synaptosomal uptake of norepinephrine (NE); experiment: Blockade of synaptosomal uptake of norepinephrine (NE) in vitro, rat hypothalmus; type: biochemical, Sprague-Dawley CD male rats; conditions: rat hypothalmus synaptosomes
Method: as §1

[4] = tested on: synaptosomal uptake of serotonin (5HT); experiment: Blockade of synaptosomal uptake of serotonin (5HT) in vitro, rat corpus striatum; type: biochemical, Sprague-Dawley CD male rats; conditions: rat corpus striatum synaptosomes, 5HT uptake
Method: as §1

uptake of serotonin = conditions: known drugs; cited from earlier work
[5] = mice, oral, no observed tremors at 32 mg./kg., highest dose tested, read-out: ED50 (tremors), footnoted
[6] = mice, subcutaneous, 1 hour before test
[7] = po, 1 h, read-out: ED50 (tremors), mice, oral, then 100 mg./kg. i.p. 5HTP one hour later

## CN[C@@H]1CC[C@@H](c2ccc(Cl)c(Cl)c2)c2ccccc21 (relative stereo) [Example 1, Trans-(1S)(1R)-N-methyl-4-(3,4-diclorophenyl)-1,2,3,4-tetrahydro-1-naphthalenamine Hydrochloride]
mice; 1 h
  ED50: 1.5 mg/kg
[1]; po, 1 h, read-out: ED50 (oral dosage level at which tremors elicited), mice, oral, then 100 mg./kg. i.p. 5HTP one hour later, tremors
  ED50: 3.2 to 10 mg/kg

## CN[C@@H]1CC[C@@H](c2ccc(Cl)cc2)c2ccccc21.Cl (relative stereo) [Example 4, Trans-N-methyl-4-(4-chlorophenyl)-1,2,3,4-tetrahydro-1-naphthalenamine Hydrochloride]
[1]; mice, oral
  ED50 (tremors): 10-32 mg./kg. - oral
[2]; Hydrochloride
  IC50: 110 nM

## CN[C@@H]1CC[C@@H](c2ccc(Cl)cc2)c2ccccc21.Cl (relative stereo) [Example 5, Trans-N-methyl-4-(4-chlorophenyl)-1,2,3,4-tetrahydro-1-naphthalenamine Hydrochloride]
[1]; [5]
  ED50: > 32 mg/kg

## CN[C@@H]1CC[C@@H](c2ccc(Cl)cc2)c2ccccc21.Cl (relative stereo) [Example 6, Trans-N-methyl-4-(4-chlorophenyl)-1,2,3,4-tetrahydro-1-naphthalenamine Hydrochloride]
mice; [6]
  ED50: 0.88 mg/kg
[1]; mice, oral
  ED50 (tremors): 3.2-10 mg./kg. - oral

## CN[C@@H]1CC[C@@H](c2ccc(F)cc2)c2ccccc21 (relative stereo) [Example 7, Trans-(1S)(1R)-N-methyl-4-(4-fluorophenyl)-1,2,3,4-tetrahydro-1-naphthalenamine Hydrochloride]
[3]
  IC50: 27 nM
mice; 1 h
  ED50: 2.3 mg/kg
[1]; po, read-out: ED50 (tremors), footnoted, mice, oral, no observed tremors at 32 mg./kg., highest dose tested
  ED50: > 32 mg/kg
[2]
  IC50: 220 nM

## CN[C@@H]1CC[C@@H](c2ccc(C(F)(F)F)cc2)c2ccccc21 (relative stereo) [Example 8]
[3]
  IC50: 690 nM
mice; [6]
  ED50: > 10 mg/kg
[1]; [7]
  ED50: 10 to 32 mg/kg
[2]
  IC50: 4400 nM

## CN[C@@H]1CC[C@@H](c2cccc(C(F)(F)F)c2)c2ccccc21 (relative stereo) [Example 9, Trans-(1S)(1R)-N-methyl-4-(3-trifluoromethylphenyl)-1,2,3,4-tetrahydro-1-naphthalenamine Maleate]
[3]
  IC50: 260 nM
mice; 1 h
  ED50: > 32 mg/kg
[1]; [7]
  ED50: 10 to 32 mg/kg
[2]
  IC50: 2600 nM

## CN[C@@H]1CC[C@@H](c2ccc(Cl)c(C(F)(F)F)c2)c2ccccc21 (relative stereo) [Example 10]
mice; [6]
  ED50: < 32 mg/kg
[1]; [7]
  ED50: 10 to 32 mg/kg
[2]
  IC50: 7300 nM

## CN[C@@H]1CC[C@@H](c2ccc(Cl)cc2)c2ccc(Cl)cc21 (relative stereo) [Example 11, Trans-(1S)(1R)-N-methyl-4-(4-chlorophenyl)-7-chloro-1,2,3,4-tetrahydro-1-naphthalenamine Hydrochloride]
[3]
  IC50: 28 nM
mice; [6]
  ED50: 6.4 mg/kg
[4]
  IC50: 160 nM
[2]
  IC50: 45 nM

## CN[C@@H]1CC[C@@H](c2ccc(Br)cc2)c2ccccc21 (relative stereo) [Example 12, Trans-(1S)(1R)-N-methyl-4-(4-bromophenyl)-1,2,3,4-tetrahydro-1-naphthalenamine Hydrochloride]
[3]
  IC50: 29 nM
[4]
  IC50: 90 nM
[2]
  IC50: 80 nM

## CN[C@@H]1CC[C@@H](c2ccc(OC)cc2)c2ccccc21 (relative stereo) [Example 13, Trans-(1S)(1R)-N-methyl-4-(4-methoxyphenyl)-1,2,3,4-tetrahydro-1-naphthalenamine Hydrochloride]
[3]
  IC50: 150 nM
[2]
  IC50: 400 nM

## CN[C@@H]1CC[C@@H](c2ccccc2OC)c2ccccc21 (relative stereo) [Example 14]
[3]
  IC50: 480 nM
mice; [6]
  ED50: > 32 mg/kg
[4]
  IC50: 4500 nM
[1]; [5]
  ED50: > 32 mg/kg
[2]
  IC50: 5700 nM

## CN[C@@H]1CC[C@@H](c2cccc(OC)c2)c2ccccc21 (relative stereo) [Example 15]
[3]
  IC50: 60 nM
[4]
  IC50: 340 nM
[2]
  IC50: 530 nM

## CN[C@@H]1CC[C@@H](c2ccc(Cl)cc2Cl)c2ccccc21 (relative stereo) [Example 16, Trans-(1S)(1R)-N-methyl-4-(2,4-dichlorophenyl)-1,2,3,4-tetrahydro-1-naphthalenamine Hydrochloride]
[2]
  IC50: 6100 nM

## CN[C@@H]1CC[C@@H](c2ccc(Cl)cc2)c2ccc(OC)cc21 (relative stereo) [Example 17, Trans-(1S)(1R)-N-methyl-4-(4-chlorophenyl)-7-methoxy-1,2,3,4-tetrahydro-1-naphthalenamine Hydrochloride]
[3]
  IC50: 17 nM
[4]
  IC50: 150 nM
[2]
  IC50: 42 nM

## CN(C)[C@@H]1CC[C@@H](c2cccc(C(F)(F)F)c2)c2ccccc21 (relative stereo) [Example 18, Trans-(1S)(1R)-N,N-dimethyl-4-(3-trifluoromethylphenyl)-1,2,3,4-tetrahydro-1-naphthalenamine Maleate]
[3]
  IC50: 1400 nM
[4]
  IC50: 220 nM
[2]
  IC50: 6100 nM

## CN(C)[C@@H]1CC[C@@H](c2ccc(C(F)(F)F)cc2)c2ccccc21 (relative stereo) [Example 19]
[3]
  IC50: 4700 nM
[1]; [7]
  ED50: 3.2 to 10 mg/kg
[2]
  IC50: 9800 nM

## CN(C)[C@@H]1CC[C@@H](c2ccc(Cl)cc2)c2ccccc21 (relative stereo) [Example 20]
[3]
  IC50: 130 nM
[2]
  IC50: 380 nM

## CN(C)[C@@H]1CC[C@@H](c2ccc(Cl)c(Cl)c2)c2ccccc21 (relative stereo) [Example 20a]
[2]
  IC50: 170 nM

## CN[C@@H]1CC[C@@H](c2ccccc2)c2ccccc21 (relative stereo) [I, Trans-(1S)(1R)-N-- methyl-4-phenyl-1,2,3,4-tetrahydro-1-naphthalenamine hydrochloride, reference compound]
[3]
  IC50: 37 nM
[4]
  IC50: 1500 nM
[2]
  IC50: 210 nM

## CN(C)[C@@H]1CC[C@@H](c2ccccc2)c2ccccc21 (relative stereo) [II, Trans-(1S)(1R)-N,N-- dimethyl-4-phenyl-1,2,3,4-tetrahydro-1-naphthalenamine hydrochloride, reference compound]
[3]
  IC50: 140 nM
[2]
  IC50: 840 nM

## N[C@@H](Cc1c[nH]c2ccc(O)cc12)C(=O)O [Example 5HTP, 5-hydroxytryptophan, reference compound]
[1]; mice, 100 mg./kg. i.p. 5HTP alone
  behavioral effects of 5HTP by itself: no clear behavioral effects

## COCCCC/C(=N\OCCN)c1ccc(C(F)(F)F)cc1 [fluvoxamine]
Uptake of serotonin
  selective block of uptake of serotonin (compared to norepinephrine blockade): selectively block the uptake of serotonin

## CN(C)C/C=C(/c1ccc(Br)cc1)c1cccnc1 [zimelidine]
Uptake of serotonin
  selective block of uptake of serotonin (compared to norepinephrine blockade): selectively block the uptake of serotonin
